Test results taken from PMC11124822, “Discovery and Anticancer Screening of Novel Oxindole-Based Derivative Bearing Pyridyl Group as Potent and Selective Dual FLT3/CDK2 Kinase Inhibitor” (Pharmaceuticals, 2024).
Where two headings read alike, the source gives them in different places.

Experiments:
Assay in all cases: NCI-60 antiproliferative screen (SRB)
[1] = tested on: M14; format: cell-based, human; details: 48 h
[2] = tested on: SR; details: Homo sapiens, 48 h, read-out: Growth inhibition (%)
Experimental: (§1) Anticancer activity was tested against 60 cancer cell lines (NCI-60) after 48h treatments with a single dosage of 10 μM of compounds by using sulforhodamine B assay [39] on the traditional 96-well platform. […] The human cancer cell lines of the NCI-60 panel are grown in RPMI 1640 medium supplemented with 5% FBS (fetal bovine serum) and 2 mM L-glutamine. […] For further analysis of promising compounds, five dose screens were performed against the NCI-60 panel. Drug treatments are performed in 5 doses using 10-fold or ½ log dose dilutions.

[3] = tested on: LOX IMVI; format: cell-based, human; details: 48 h; for CC50: read-out: LC50 (the source's name)
[4] = tested on: HL-60(TB); format: cell-based, human; details: 48 h
[5] = tested on: U251; format: cell-based, human; details: 48 h
[6] = tested on: DU-145; format: cell-based, human; details: 48 h
[7] = tested on: NCI-H522; format: cell-based, human; details: 48 h
[8] = tested on: MDA-MB-435; format: cell-based, human; details: 48 h
[9] = tested on: SNB-19; format: cell-based, human; details: 48 h
[10] = tested on: K-562; format: cell-based, human; details: 48 h
[11] = tested on: HCT-116; format: cell-based, human; details: 48 h
[12] = tested on: IGROV1; format: cell-based, human; details: five-dose, 48 h, IGROV1
[13] = tested on: NCI-H322M; format: cell-based, human; details: five-dose, 48 h, NCI-H322M
[14] = tested on: UACC-62; format: cell-based, human; details: 48 h
[15] = tested on: MALME-3M; format: cell-based, human; details: five-dose, 48 h, MELME-3M
[16] = tested on: MDA-MB-468; format: cell-based, human; details: 48 h
[17] = tested on: OVCAR-4; details: Homo sapiens, OVCAR-4, 48 h, read-out: Growth inhibition (%)
Experimental: as §1

[18] = tested on: RXF 393; format: cell-based, human; details: 48 h
[19] = tested on: PC-3; format: cell-based, human; details: 48 h
[20] = tested on: EKVX; format: cell-based, human; details: 48 h
[21] = tested on: BT-549; format: cell-based, human; details: 48 h
[22] = tested on: SF-295; format: cell-based, human; details: 48 h
[23] = tested on: HT29; format: cell-based, human; details: 48 h
[24] = tested on: OVCAR-3; format: cell-based, human; details: 48 h
[25] = tested on: UACC-257; format: cell-based, human; details: 48 h
[26] = tested on: HS 578T; format: cell-based, human; details: 48 h
[27] = tested on: UO-31; format: cell-based, human; details: five-dose, 48 h, UO-31
[28] = tested on: NCI-H460; format: cell-based, human; details: 48 h
[29] = tested on: NCI/ADR-RES; format: cell-based, human; details: 48 h
[30] = tested on: 786-0; format: cell-based, human; details: 48 h

Work on O=C1Nc2cc(Cl)ccc2C1=Cc1ccc(OCc2cccnc2)cc1 (mixture of isomers) [Compound 5l, (E/Z)-6-Chloro-3-[4-(pyridin-3-ylmethoxy)benzylidene] indolin-2-one] yielded an inhibition at 10 µM ([1]; Homo sapiens, 10 µM single dose, M14 (Melanoma), read-out: Growth inhibition (%)) of 77.1%, a GI50 ([1]; Homo sapiens, five-dose, M14) of 29 µM and a TGI ([1]; five-dose, M14) of over 100 µM. It also gave an inhibition at 10 µM [2] of 84.2%, a CC50 ([3]; Homo sapiens, LOX IMVI, five-dose, LOX IMVI) of 96.9 µM and an inhibition at 10 µM ([3]; Homo sapiens, 10 µM single dose, LOX IMVI (Melanoma), read-out: Growth inhibition (%)) of 91%. It also gave a GI50 ([3]; Homo sapiens, five-dose, LOX IMVI) of 4.7 µM, a TGI ([3]; five-dose, LOX IMVI) of 24.80 µM and a CC50 ([3]; five-dose, LOX IMVI) of 96.6 µM. The GI50 ([4]; Homo sapiens, HL-60, five-dose, HL60(TB)) was 4.08 µM, the CC50 ([4]; Homo sapiens, HL-60, five-dose, HL60(TB), read-out: LC50 (the source's name)) was over 100 µM and the inhibition at 10 µM ([4]; Homo sapiens, 10 µM single dose, HL-60(TB) (Leukemia), read-out: Growth inhibition (%)) was 95.5%. For the same compound, the TGI ([4]; five-dose, HL60(TB)) was over 100 µM, the inhibition at 10 µM ([5]; Homo sapiens, U-251, 10 µM single dose, U251 (CNS), read-out: Growth inhibition (%)) was 76.4% and the GI50 ([5]; Homo sapiens, U-251, five-dose, U251) was 7.55 µM. It also gave a CC50 ([5]; Homo sapiens, U-251, five-dose, U251, read-out: LC50 (the source's name)) of over 100 µM, a TGI ([5]; five-dose, U251) of 39.40 µM and an inhibition at 10 µM ([6]; Homo sapiens, 10 µM single dose, DU-145 (Prostate), read-out: Growth inhibition (%)) of 58.6%. The GI50 ([6]; Homo sapiens, five-dose, DU-145) was 13.2 µM, the TGI ([6]; five-dose, DU-145) was 54.90 µM and the inhibition at 10 µM ([7]; Homo sapiens, 10 µM single dose, NCI-H522 (NSCLC), read-out: Growth inhibition (%)) was 104%. For the same compound, the GI50 ([7]; Homo sapiens, five-dose, NCI-H522) was 12.3 µM, the TGI ([7]; five-dose, NCI-H522) was 82.20 µM and the inhibition at 10 µM ([8]; Homo sapiens, 10 µM single dose, MDA-MB-435 (Melanoma), read-out: Growth inhibition (%)) was 121%. For the same compound, the GI50 ([8]; Homo sapiens, five-dose, MDA-MB-435) was 4.44 µM, the TGI ([8]; five-dose, MDA-MB-435) was 76.90 µM and the inhibition at 10 µM ([9]; Homo sapiens, 10 µM single dose, SNB-19 (CNS), read-out: Growth inhibition (%)) was 56.2%. It also gave a GI50 ([9]; Homo sapiens, five-dose, SNB-19) of 12.4 µM, a TGI ([9]; five-dose, SNB-19) of over 100 µM and an inhibition at 10 µM ([10]; Homo sapiens, K562, 10 µM single dose, K-562 (Leukemia), read-out: Growth inhibition (%)) of 95%. For the same compound, the GI50 ([10]; Homo sapiens, K562, five-dose, K-562) was 3.08 µM, the CC50 ([10]; Homo sapiens, K562, five-dose, K-562, read-out: LC50 (the source's name)) was over 100 µM and the TGI ([10]; five-dose, K-562) was over 100 µM. The inhibition at 10 µM ([11]; Homo sapiens, 10 µM single dose, HCT-116 (Colon), read-out: Growth inhibition (%)) was 93%, the GI50 ([11]; Homo sapiens, five-dose, HCT-116) was 6.97 µM and the TGI ([11]; five-dose, HCT-116) was over 100 µM. It also gave a GI50 ([12]; Homo sapiens, IGROV-1) of 10.7 µM, a CC50 ([12]; Homo sapiens, IGROV-1, read-out: LC50 (the source's name)) of over 100 µM and a TGI [12] of 3.32 µM. For the same compound, the GI50 ([13]; Homo sapiens) was 23.2 µM, the TGI [13] was over 100 µM and the inhibition at 10 µM ([14]; Homo sapiens, 10 µM single dose, UACC-62 (Melanoma), read-out: Growth inhibition (%)) was 64.3%. It also gave a GI50 ([14]; Homo sapiens, five-dose, UACC-62) of 7.7 µM, a TGI ([14]; five-dose, UACC-62) of 43.50 µM and a GI50 ([15]; Homo sapiens, Malme-3M) of 18.9 µM. It also gave a TGI [15] of 75.70 µM, an inhibition at 10 µM ([16]; Homo sapiens, 10 µM single dose, MDA-MB-468 (Breast), read-out: Growth inhibition (%)) of 85.7% and a GI50 ([16]; Homo sapiens, five-dose, MDA-MB-468) of 3.76 µM. For the same compound, the CC50 ([16]; Homo sapiens, five-dose, MDA-MB-468, read-out: LC50 (the source's name)) was over 100 µM, the TGI ([16]; five-dose, MDA-MB-468) was 43.00 µM and the inhibition at 10 µM [17] was 68.4%. It also gave a GI50 ([18]; Homo sapiens, RXF 393, five-dose, RXF393) of 9.07 µM, a CC50 ([18]; Homo sapiens, RXF 393, five-dose, RXF393, read-out: LC50 (the source's name)) of over 100 µM and an inhibition at 10 µM ([18]; Homo sapiens, 10 µM single dose, RXF 393 (Renal), read-out: Growth inhibition (%)) of 63.4%. For the same compound, the TGI ([18]; five-dose, RXF393) was 90.20 µM, the inhibition at 10 µM ([19]; Homo sapiens, 10 µM single dose, PC-3 (Prostate), read-out: Growth inhibition (%)) was 67.1% and the GI50 ([19]; Homo sapiens, five-dose, PC-3) was 6.37 µM. For the same compound, the CC50 ([19]; Homo sapiens, five-dose, PC-3, read-out: LC50 (the source's name)) was over 100 µM, the TGI ([19]; five-dose, PC-3) was over 100 µM and the inhibition at 10 µM ([20]; Homo sapiens, 10 µM single dose, EKVX (NSCLC), read-out: Growth inhibition (%)) was 60.9%. It also gave a GI50 ([20]; Homo sapiens, five-dose, EKVX) of 6.02 µM, a TGI ([20]; five-dose, EKVX) of over 100 µM and an inhibition at 10 µM ([21]; Homo sapiens, 10 µM single dose, BT-549 (Breast), read-out: Growth inhibition (%)) of 95.7%. For the same compound, the GI50 ([21]; Homo sapiens, five-dose, BT-549) was 10.4 µM, the CC50 ([21]; Homo sapiens, five-dose, BT-549, read-out: LC50 (the source's name)) was over 100 µM and the TGI ([21]; five-dose, BT-549) was 46.30 µM. For the same compound, the inhibition at 10 µM ([22]; Homo sapiens, 10 µM single dose, SF-295 (CNS), read-out: Growth inhibition (%)) was 63.3%, the GI50 ([22]; Homo sapiens, five-dose, SF-295) was 10.6 µM and the TGI ([22]; five-dose, SF-295) was 39.90 µM. The inhibition at 10 µM ([23]; Homo sapiens, HT-29, 10 µM single dose, HT29 (Colon), read-out: Growth inhibition (%)) was 90.3%, the GI50 ([23]; Homo sapiens, HT-29, five-dose, HT29) was 6.45 µM and the CC50 ([23]; Homo sapiens, HT-29, five-dose, HT29, read-out: LC50 (the source's name)) was over 100 µM. For the same compound, the TGI ([23]; five-dose, HT29) was 37.80 µM, the inhibition at 10 µM ([24]; Homo sapiens, 10 µM single dose, OVCAR-3 (Ovarian), read-out: Growth inhibition (%)) was 61.8% and the GI50 ([24]; Homo sapiens, five-dose, OVCAR-3) was 57.7 µM. For the same compound, the CC50 ([24]; Homo sapiens, five-dose, OVCAR-3, read-out: LC50 (the source's name)) was over 100 µM, the TGI ([24]; five-dose, OVCAR-3) was 2.26 µM and the inhibition at 10 µM ([25]; Homo sapiens, 10 µM single dose, UACC-257 (Melanoma), read-out: Growth inhibition (%)) was 76.7%. The GI50 ([25]; Homo sapiens, five-dose, UACC-257) was 8.06 µM, the CC50 ([25]; Homo sapiens, five-dose, UACC-257, read-out: LC50 (the source's name)) was over 100 µM and the TGI ([25]; five-dose, UACC-257) was 43.80 µM. The inhibition at 10 µM ([26]; Homo sapiens, 10 µM single dose, HS 578T (Breast), read-out: Growth inhibition (%)) was 62.7%, the GI50 ([26]; Homo sapiens, five-dose, HS 578T) was 12.8 µM and the CC50 ([26]; Homo sapiens, five-dose, HS 578T, read-out: LC50 (the source's name)) was over 100 µM. The TGI ([26]; five-dose, HS 578T) was 98.10 µM, the GI50 ([27]; Homo sapiens) was 2.7 µM and the CC50 ([27]; Homo sapiens, read-out: LC50 (the source's name)) was over 100 µM. For the same compound, the TGI [27] was over 100 µM, the inhibition at 10 µM ([28]; Homo sapiens, 10 µM single dose, NCI-H460 (NSCLC), read-out: Growth inhibition (%)) was 77.7% and the GI50 ([28]; Homo sapiens, five-dose, NCI-H460) was 14 µM. The CC50 ([28]; Homo sapiens, five-dose, NCI-H460, read-out: LC50 (the source's name)) was over 100 µM, the TGI ([28]; five-dose, NCI-H460) was over 100 µM and the inhibition at 10 µM ([29]; Homo sapiens, 10 µM single dose, NCI/ADR-RES (Ovarian), read-out: Growth inhibition (%)) was 112%. For the same compound, the GI50 ([29]; Homo sapiens, five-dose, NCI/ADR-RES) was 3.45 µM, the TGI ([29]; five-dose, NCI/ADR-RES) was 23.60 µM and the inhibition at 10 µM ([30]; Homo sapiens, 10 µM single dose, 786-0 (Renal), read-out: Growth inhibition (%)) was 47.2%. The GI50 ([30]; Homo sapiens, five-dose, 786-0) was 26.6 µM, the CC50 ([30]; Homo sapiens, five-dose, 786-0, read-out: LC50 (the source's name)) was over 100 µM and the TGI ([30]; five-dose, 786-0) was over 100 µM.
